Experimental findings from EPA's ToxValDB 9.5 (doi:10.2903/j.efsa.2009.1350) are described below.

In one data set the test system is Rattus norvegicus. The note with it: for LD50: acute; for NOAEL: histopathology: nonneoplastic.
Another data set deals with Anas platyrhynchos. The note with it: for NOEC: reproductive.
Another data set concerns Apis mellifera. The conditions noted are these: acute; duration: 48 hours; oral; unspecified; mortality.
For another data set, the system named is Bibionidae. The conditions noted are these: chronic/long-term; duration: 28 days.
The test system of the next data set is Canidae. The note with it: subchronic; duration: 90 days; oral; diet; Dog Other; clinical signs.
The test system of another data set is Cyprinodon variegatus. The note with it: mortality.
In the next data set the test system is Daphnia magna. The conditions noted are these: chronic/long-term; duration: 21 days; reproduction.
Another data set relates to Lolium perenne. The note with it: acute; duration: 21 days; other.
For the next data set, the system named is Neomysis kadiakensis. The conditions noted are these: chronic/long-term; duration: 28 days; reproduction.
Another data set deals with Typhlodromus pyri. Put plainly: LR50; higher = less toxic. The conditions noted are these: acute; duration: 7 days; mortality.

The term NOAEL denotes the highest dose or exposure tested at which no adverse effect was seen.

Converted amounts (≈) assume the structure as drawn. Bounds are passed on as bounds.

As to `CCCOc1nc2ccccc2c(=O)n1CCC` [2-Propoxy-3-propyl-4(3H)-quinazolinone], in the data set on Rattus norvegicus (oral, mortality), the LD50 was found to be 2050 mg/kg-day.

Regarding `CCCOc1nc2ccc(I)cc2c(=O)n1CCC` [Proquinazid], the NOEC was determined as 29.6 mg/kg-day in the data set with Anas platyrhynchos (F); 31.5 mg/kg-day with Anas platyrhynchos (M); 0.465 mg/L in the data set with Bibionidae; 7.78 mg/kg-day in the data set on Colinus virginianus (reproduction developmental); 0.00872 mg/L with Cyprinodon variegatus (chronic/long-term, duration: 36 days); 0.0018 mg/L with Daphnia magna. Besides, the NOEC in the data set on Neomysis kadiakensis was 0.0105 mg/L; in the data set with Oncorhynchus mykiss (chronic/long-term, duration: 90 days, other) it was 0.003 mg/L; with Tagia sp. (chronic/long-term, duration: 56 days), greater than 50.9 mg/kg. Also, the LC50 in the data set with Anas platyrhynchos (short-term, oral, feed, mortality) is 3110 mg/kg-day; in the data set with Colinus virginianus (acute, oral, diet, mortality), 1370 mg/kg-day; with Cyprinodon variegatus (acute, duration: 96 hours) it was greater than 0.58 µg/mL; in the data set with Oncorhynchus mykiss (acute, duration: 96 hours, mortality) it was 0.349 µg/mL (≈ 0.938 µM); in the data set with Tagia sp. (acute, duration: 14 days, mortality) it was greater than 1000 mg/kg. Moreover, the LD50 in the data set with Apis mellifera is greater than 125 µg/piece; in the data set with Colinus virginianus (acute, oral, mortality), greater than 2250 mg/kg-day; in the data set on Rattus norvegicus (oral, mortality) it was 4850 mg/kg-day. The NOAEL came to 19 mg/kg-day in the data set on Canidae; 1.2 mg/kg-day with Rattus norvegicus (chronic, duration: 2 years); 2 mg/kg-day with Rattus norvegicus (subchronic, duration: 90 days, oral, diet). In the data set with Lolium perenne, the LEL came to 75 g/ha. Besides, the NOEL is greater than 600 mg/kg-day in the data set with Rattus norvegicus (chronic, mortality) and 35.1 mg/kg-day in the data set with Rattus norvegicus (reproduction developmental, reproduction). The same molecule showed an LR50 in the data set on Typhlodromus pyri of 47.9 g/ha.
